Data as given in article PMC11513892, “Discovery of a Series of Macrocycles as Potent Inhibitors of Leishmania Infantum” (Journal of Medicinal Chemistry, 2024).
Where two headings read alike, the source gives them in different places.

Columns and labels:
[1] = tested on: MRC-5 cells; test: Host cell cytotoxicity in MRC-5 cells; format: cell-based, human; settings: CSV supplement; decimal comma
[2] = tested on: primary mouse macrophages (PMMs); test: Host cell cytotoxicity in primary mouse macrophages (PMM); format: cell-based; settings: CSV supplement; decimal comma
[3] = tested on: T. b. rhodesiense; test: Growth of T. b. rhodesiense trypomastigotes in axenic culture; format: cell-based, Trypanosoma brucei rhodesiense; settings: Trypanosoma brucei, RHODESIENSE / STIB900; CSV supplement; decimal comma; read-out: EC50 T.b. rhodesiense STIB 900
Excerpt: (§1) We previously reported the synthesis of a series of macrocycles, including 1 (Figure 2A), designed to investigate how structural features influence molecular chameleonicity.[15],[21] Originating from the structural similarities between 1 and hymenocardine, we investigated 1 in screens for P. falciparum and four kinetoplastid parasites: T. b. brucei, T. b. rhodesiense, T. cruzi, and L. infantum. In the screens, we also included compounds 2 and 3 (Figure 2A), which were obtained from an intermediate late in the synthetic route to 1. Since very few validated protein targets relevant to clearance of parasites are known, phenotypic assays were used to investigate the antiparasitic activity for all five parasites. For malaria, the P. falciparum blood stage 3D7 strain was used to test the three compounds. For the two Trypanosoma brucei species, the reduction in trypomastigote growth in culture medium was determined after the addition of 1–3. For T. cruzi, the intracellular parasite growth in infected human fibroblasts (MRC-5 cell line) was assessed in the presence and absence of the three inhibitors. Similarly, the growth of L. infantum was assessed in infected primary mouse macrophages (PMMs) in the presence and absence of the inhibitors. […] The assays for T. cruzi and L. infantum are complex, i.e., they determine the degree of inhibition of parasitic replication in a mammalian cell line; this complexity may lead to a high variability for some compounds.
(§2) The growth of the P. falciparum blood stage 3D7 strain,[53] the two T. brucei species in axenic cultures,[54]T. cruzi in infected human fibroblasts (MRC-5 cell line),[55] and of L. infantum in infected primary mouse macrophages (PMMs)[56] was determined as previously reported in the presence and absence of inhibitors 1–12.

[4] = Clearance in mouse liver microsomes; format: in vitro ADME; settings: for microsomal CLint: mouse, liver microsomes
Protocol: (§3) The kinetic solubility in phosphate buffered saline at pH 7.4, chromatographic Log D at pH 7.4, cell permeability across a MDCK-MDR1 cell monolayer at pH 7.4, and the clearance in mouse liver microsomes of 1–12 was determined at TCG Lifesciences.

[5] = Clearance in human microsomes; format: in vitro ADME; settings: CSV supplement
Excerpt: Supplement jm4c01370_si_002.csv, table | column: CLint in vitro Human Microsomes µL/min/mg; t(1/2) min

[6] = tested on: P. falciparum blood stage 3D7 strain; test: Growth of P. falciparum blood stage 3D7 strain (phenotypic); format: cell-based, Plasmodium falciparum; settings: Figure 2A
Excerpt: as §1, §2

[7] = tested on: Leishmania donovani; test: Activity against Leishmania donovani; format: cell-based
[8] = tested on: T. b. brucei; test: Growth of T. b. brucei trypomastigotes in axenic culture; format: cell-based; settings: Trypanosoma brucei
Excerpt: as §1, §2

[9] = Chromatographic Log D at pH 7.4; format: physicochemical; settings: 1-octanol/PBS pH 7.4, determined by chromatography, mean of two measurements
Protocol: as §3

[10] = tested on: L. infantum; test: Growth of L. infantum in infected primary mouse macrophages (PMMs), phenotypic assay; format: cell-based, Leishmania infantum; settings: Leishmania infantum, Macrophage
Excerpt: as §1
(§4) The potency of macrocycles 1–12 to inhibit the growth of L. infantum was determined in a phenotypic assay in which the parasite was grown in primary peritoneal mouse macrophages (PMMs). To understand whether the SAR for inhibition of parasitic growth is impacted by low cell permeability, the permeability of compounds 1–12 was determined separately. Madin-Darby canine kidney (MDCK) cells transfected with the human MDR1 (multidrug resistance 1) gene (MDCK-MDR1 cells) were used to determine permeabilities in the apical to basolateral direction (Papp AB) as well as efflux ratios (ERs). […] Lipophilicity (Log D at pH 7.4), aqueous kinetic solubility and mouse liver microsomal metabolism were also determined for 1–12, and are discussed separately (cf. physiochemical properties and ADMET, below).
as §2

[11] = tested on: T. cruzi; test: Intracellular growth of T. cruzi in infected human fibroblasts (MRC-5 cell line); format: cell-based; settings: Trypanosoma cruzi
Excerpt: as §1, §2

[12] = tested on: MDR1; test: in vitro; format: in vitro ADME, canine; settings: dog; for Papp B→A: MDCK-MDR1, pH 7.4; for Papp A→B: MDCK-MDR1, pH 7.4, Papp AB
Protocol: as §4, §3

[13] = Kinetic solubility in phosphate buffered saline at pH 7.4; format: physicochemical; settings: phosphate buffered saline
Protocol: as §3

[14] = Metabolite identification after incubation with rat liver microsomes; format: in vitro ADME; settings: Figure S3: rat liver microsomes, samples at 5, 10, 20, 30 and 60 minutes
Protocol: page 4: Figure S2. Endo and exo conformations for compound 5, obtained using the Monte Carlo-QM protocol for conformational sampling. Minimum energy conformations (MECs) and all conformations within 5 kcal/mol of the MECs are shown. Figure S3. Metabolically labile sites (indicated by red circles) observed for compound 3 after incubation with rat liver microsomes. Samples were collected at 5, 10, 20, 30 and 60 minutes. […]

[15] = tested on: MDCK-MDR1 cells; test: in vitro; format: in vitro ADME, canine; settings: dog, MDCK-MDR1, pH 7.4
Protocol: as §4, §3

[16] = CSV supplement, read-out: CLint in vitro Mouse Microsomes
[17] = incubation with mouse liver microsomes, read-out: CLint
[18] = CSV supplement, decimal comma, read-out: EC50 T.b. brucei Squib 427
[19] = Table S1, mean (SD), 2 to 14 measurements, unit not given in Table S1, read-out: In vitro potency, T. b. brucei
[20] = Table 1, mean (standard deviation, number of measurements), read-out: EC50 (μM), inhibition of the growth of L. infantum
[21] = TULAHUEN, MRC5, read-out: EC50 T. cruzi Tulahuen C4 (LacZ)
[22] = MDCK-MDR1, pH 7.4, ER, efflux ratio (BA/AB)
[23] = MDCK-MDR1, pH 7.4, MDCK MDR1 - pH 7.4 Efflux Ratio
[24] = pH 7.4, CSV supplement, read-out: Kinetic solubility
[25] = pH 7.4, phosphate buffered saline pH 7.4, assay range 2.5–200 μM, read-out: solubility (kinetic)

| Compound | MRC-5 cells Human Lung Fibroblast Cells (cytotoxicity) [1] | PMM Primary Mouse Macrophages (inf-LMPH) (cytotoxicity) [2] | EC50 [3] | t(1/2), Mouse Microsomes ([4]; CSV supplement) | microsomal CLint [4, 16] | microsomal CLint [4, 17] | EC50 [8, 18] | EC50 [8, 19] | chromatographic logD [9] | EC50 [10, 20] | EC50 [11, 21] | Papp B→A [12] | efflux ratio [12, 22] | efflux ratio [12, 23] | Papp A→B [12] | solubility kinetic [13, 24] | solubility kinetic [13, 25] | further results |
| --- | --- | --- | --- | --- | --- | --- | --- | --- | --- | --- | --- | --- | --- | --- | --- | --- | --- | --- |
| CC(C)(C)OC(=O)N[C@H]1Cc2ccc(cc2)Oc2ccc(cc2NC(=O)c2ccccn2)C(=O)CNC(=O)[C@H](Cc2ccccc2)NC1=O [Compound 3, tert-Butyl ((8S,11S)-8-Benzyl-4,7,10-trioxo-3^2-(picolinamido)-2-oxa-6,9-diaza-1,3(1,4)-dibenzenacyclododecaphane-11-yl)carbamate] | 57,6 µM | >64 µM | 9.1 µM | <3 min | > 578 µL/min/mg | > 580 µL/min/mg | 15.1 µM | 15 µM | 4.9 | 1.8 µM | 20 µM | 22.2 ×10⁻⁶ cm/s | 6.4 | 6.4 | 3.5 ×10⁻⁶ cm/s | 1 µg/mL | < 2.5 µM | t(1/2), Human Microsomes [5]: <3 min; microsomal CLint ([5]; human, microsomes, read-out: CLint in vitro Human Microsomes): > 578 µL/min/mg; potency as inhibitor of P. falciparum (in words) [6]: moderately potent; EC50 ([6]; Plasmodium falciparum, 3D7, mean (SD) from 2 to 14 measurements): 3 µM; EC50 [7]: 1.04 ± 0.25 µM; EC50 ([10]; Figure 2, mean (SD), miltefosine from 19 measurements, read-out: EC50 L. infantum): < 2 µM; EC50 ([11]; MRC5, Figure 2A, mean (SD) from 2 to 14 measurements, read-out: EC50 T. cruzi): 10 to 30 µM; metabolite identification, sites of metabolism [14]: oxidative metabolism occurring at the P2 and P3 positions, and at the α-carbon atom of the tyrosine moiety in the macrocyclic ring |
| CC(C)(C)OC(=O)N[C@H]1Cc2ccc(cc2)Oc2ccc(cc2NC(=O)c2ccccn2)CCNC(=O)[C@H](Cc2ccccc2)NC1=O [Compound 6, tert-Butyl ((8S,11S)-8-Benzyl-7,10-dioxo-3^2-(picolinamido)-2-oxa-6,9-diaza-1,3(1,4)-dibenzenacyclododecaphane-11-yl)carbamate] | 45,8 µM | 16,0 µM | 6.3 µM | <3 min | > 578 µL/min/mg | > 580 µL/min/mg | 11.8 µM | 12 µM | 5.1 | 12 µM | 18.8 µM | 79.9 ×10⁻⁶ cm/s | 8.4 | 8.4 | > 5 ×10⁻⁶ cm/s | 3.8 µg/mL | 5.9 µM | EC50 ([10]; CSV supplement, decimal comma, read-out: EC50 L. infantum MHOM/MA(BE)/67): 12.3 µM; EC50 ([11]; MRC5, Table S1, mean (SD), 2 to 14 measurements, unit not given in Table S1, read-out: In vitro potency, T. cruzi): 19 µM; Papp AB [15]: 9.5 ×10^–6 cm/s |
